From ChEMBL document CHEMBL1201862, “PubChem BioAssay data set” (2004)
Active and inactive are the calls of the source.

Key:
[1] = C. albicans growth with fluconazole, confirmation, fluorescence, retest (AID 2467); assay type: functional, cell-based
[2] = NIH-3T3 fibroblast cytotoxicity, dose response, cytotoxicity control, cell-based, fluorescence, Alamar Blue, secondary assay (AID 2327); assay type: functional;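 note: NIH-3T3 mouse fibroblasts cultured with fluconazole at 8 µg/mL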
[3] = target: T1, Fatty acid synthase (Homo sapiens, UniProt P49327); assay: FAS thioesterase domain inhibitors, dose response, biochemical, kinetic fluorescence intensity (AID 624326); assay type: functional;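 note: rate of fluorescence rise from hydrolysis of a fluorogenic O-methyl fluorescein ester substrate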
T1 sequence (P49327 whole entry, the tested form may be a part): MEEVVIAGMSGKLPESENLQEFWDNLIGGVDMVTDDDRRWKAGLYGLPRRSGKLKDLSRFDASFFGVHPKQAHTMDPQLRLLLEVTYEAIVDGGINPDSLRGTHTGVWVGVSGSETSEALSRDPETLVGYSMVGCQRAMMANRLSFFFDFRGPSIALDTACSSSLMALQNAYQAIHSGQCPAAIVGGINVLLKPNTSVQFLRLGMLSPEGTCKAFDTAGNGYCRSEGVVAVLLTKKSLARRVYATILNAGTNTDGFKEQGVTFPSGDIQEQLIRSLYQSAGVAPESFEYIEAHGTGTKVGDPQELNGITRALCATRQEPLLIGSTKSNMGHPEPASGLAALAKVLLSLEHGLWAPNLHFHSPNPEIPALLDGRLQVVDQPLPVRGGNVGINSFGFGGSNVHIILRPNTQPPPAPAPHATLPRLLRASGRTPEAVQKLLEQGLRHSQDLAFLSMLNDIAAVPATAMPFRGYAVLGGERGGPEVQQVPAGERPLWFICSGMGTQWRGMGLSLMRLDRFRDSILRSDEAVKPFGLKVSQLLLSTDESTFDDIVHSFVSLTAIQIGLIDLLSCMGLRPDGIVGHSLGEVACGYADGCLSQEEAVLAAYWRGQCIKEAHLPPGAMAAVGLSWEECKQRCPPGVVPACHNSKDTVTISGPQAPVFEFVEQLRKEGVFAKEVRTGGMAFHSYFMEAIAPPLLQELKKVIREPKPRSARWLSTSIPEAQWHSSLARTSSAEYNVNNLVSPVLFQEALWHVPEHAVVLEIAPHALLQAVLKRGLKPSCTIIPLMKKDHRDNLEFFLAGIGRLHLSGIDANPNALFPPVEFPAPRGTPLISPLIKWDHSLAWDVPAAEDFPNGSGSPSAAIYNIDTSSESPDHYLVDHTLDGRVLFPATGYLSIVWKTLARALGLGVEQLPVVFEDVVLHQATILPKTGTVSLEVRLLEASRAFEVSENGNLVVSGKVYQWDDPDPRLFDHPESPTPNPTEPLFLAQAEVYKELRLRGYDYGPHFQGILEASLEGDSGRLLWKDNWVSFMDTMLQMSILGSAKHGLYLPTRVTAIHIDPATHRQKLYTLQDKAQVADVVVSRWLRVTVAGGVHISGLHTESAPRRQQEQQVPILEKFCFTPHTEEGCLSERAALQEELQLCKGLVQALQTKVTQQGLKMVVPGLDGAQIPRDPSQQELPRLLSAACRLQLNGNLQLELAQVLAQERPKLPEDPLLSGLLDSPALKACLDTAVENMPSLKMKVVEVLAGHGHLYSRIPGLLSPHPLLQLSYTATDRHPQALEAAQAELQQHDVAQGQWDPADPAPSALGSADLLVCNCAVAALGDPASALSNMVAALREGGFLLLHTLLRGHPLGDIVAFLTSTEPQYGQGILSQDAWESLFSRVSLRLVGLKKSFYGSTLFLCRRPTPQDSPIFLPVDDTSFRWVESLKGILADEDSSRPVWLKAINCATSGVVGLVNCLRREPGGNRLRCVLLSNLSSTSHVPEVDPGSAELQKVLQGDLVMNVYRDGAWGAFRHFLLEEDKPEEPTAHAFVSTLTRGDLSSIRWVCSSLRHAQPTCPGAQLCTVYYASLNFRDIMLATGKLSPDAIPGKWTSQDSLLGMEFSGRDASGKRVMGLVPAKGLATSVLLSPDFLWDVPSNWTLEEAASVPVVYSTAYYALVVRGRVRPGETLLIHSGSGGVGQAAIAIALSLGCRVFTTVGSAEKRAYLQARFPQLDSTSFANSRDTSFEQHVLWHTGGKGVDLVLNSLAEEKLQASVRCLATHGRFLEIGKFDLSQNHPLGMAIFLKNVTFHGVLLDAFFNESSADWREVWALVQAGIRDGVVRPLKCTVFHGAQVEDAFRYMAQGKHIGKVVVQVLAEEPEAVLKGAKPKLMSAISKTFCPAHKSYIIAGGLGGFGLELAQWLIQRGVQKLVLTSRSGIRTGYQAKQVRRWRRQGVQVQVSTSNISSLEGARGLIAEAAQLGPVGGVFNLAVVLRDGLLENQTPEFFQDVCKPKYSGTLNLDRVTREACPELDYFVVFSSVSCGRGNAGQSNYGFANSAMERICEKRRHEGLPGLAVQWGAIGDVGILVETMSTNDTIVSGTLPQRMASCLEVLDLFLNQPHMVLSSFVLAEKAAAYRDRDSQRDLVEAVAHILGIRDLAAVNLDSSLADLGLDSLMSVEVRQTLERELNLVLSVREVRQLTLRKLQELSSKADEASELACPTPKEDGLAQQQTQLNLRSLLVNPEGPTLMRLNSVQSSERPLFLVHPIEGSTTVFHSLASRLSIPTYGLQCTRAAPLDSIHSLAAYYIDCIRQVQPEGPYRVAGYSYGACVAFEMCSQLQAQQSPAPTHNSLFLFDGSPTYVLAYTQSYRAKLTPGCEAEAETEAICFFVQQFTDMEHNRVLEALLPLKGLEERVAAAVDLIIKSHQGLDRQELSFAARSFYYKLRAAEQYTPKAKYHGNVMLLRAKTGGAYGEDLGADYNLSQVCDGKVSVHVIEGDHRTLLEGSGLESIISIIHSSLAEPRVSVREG

[4] = target: T2, Polyadenylate-binding protein 1 (Homo sapiens, UniProt P11940); assay: PABP1 MLLE–PAM2 interaction inhibitors, dose response, miRNA deadenylation inhibitor project, biochemical, fluorescence polarization, Cy5-PAM2 peptide, secondary (AID 602260); assay type: functional; conditions: read-out: IC50_Mean
T2 sequence (P11940 whole entry): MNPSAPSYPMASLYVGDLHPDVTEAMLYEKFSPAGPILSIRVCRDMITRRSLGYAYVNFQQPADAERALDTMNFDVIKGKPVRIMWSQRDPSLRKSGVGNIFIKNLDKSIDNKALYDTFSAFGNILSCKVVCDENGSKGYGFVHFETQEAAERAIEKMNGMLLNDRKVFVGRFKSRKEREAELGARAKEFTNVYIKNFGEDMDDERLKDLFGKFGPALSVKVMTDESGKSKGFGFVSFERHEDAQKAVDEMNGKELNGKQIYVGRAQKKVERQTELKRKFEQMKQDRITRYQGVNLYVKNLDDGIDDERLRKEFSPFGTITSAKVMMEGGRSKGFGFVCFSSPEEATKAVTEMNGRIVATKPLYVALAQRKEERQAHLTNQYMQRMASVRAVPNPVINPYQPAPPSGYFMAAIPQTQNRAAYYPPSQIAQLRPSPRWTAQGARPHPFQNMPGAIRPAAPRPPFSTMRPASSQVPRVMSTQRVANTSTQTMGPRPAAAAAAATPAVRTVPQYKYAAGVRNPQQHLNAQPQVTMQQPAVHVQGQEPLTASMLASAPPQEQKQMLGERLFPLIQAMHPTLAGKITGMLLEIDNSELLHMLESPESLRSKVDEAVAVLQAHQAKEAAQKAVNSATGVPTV

[5] = Luminescence Cell-Based Dose Retest to Confirm Inhibitors of Cancer Stem Cells. [Related pubchem assays (depositor defined):AID2717, AID2721]; assay type: functional; conditions: Homo sapiens
[6] = target: T2, Polyadenylate-binding protein 1; assay: PABP1 MLLE–PAM2 binding inhibitor potency, dose response, biochemical, fluorescence polarization, FITC-PAM2 peptide (AID 602259); assay type: functional; conditions: read-out: IC50_Mean
[7] = target: T3, Protein RecA (Mycobacterium tuberculosis, UniProt P9WHJ3); assay: Fluorescence Cell-Free Homogeneous Dose Retest to Identify Inhibitors of RecA-Intein Splicing Activity. [Related pubchem assays (depositor defined):AID2097, AID2223, AID489010, AID492950]; assay type: functional
T3 sequence (P9WHJ3 whole entry): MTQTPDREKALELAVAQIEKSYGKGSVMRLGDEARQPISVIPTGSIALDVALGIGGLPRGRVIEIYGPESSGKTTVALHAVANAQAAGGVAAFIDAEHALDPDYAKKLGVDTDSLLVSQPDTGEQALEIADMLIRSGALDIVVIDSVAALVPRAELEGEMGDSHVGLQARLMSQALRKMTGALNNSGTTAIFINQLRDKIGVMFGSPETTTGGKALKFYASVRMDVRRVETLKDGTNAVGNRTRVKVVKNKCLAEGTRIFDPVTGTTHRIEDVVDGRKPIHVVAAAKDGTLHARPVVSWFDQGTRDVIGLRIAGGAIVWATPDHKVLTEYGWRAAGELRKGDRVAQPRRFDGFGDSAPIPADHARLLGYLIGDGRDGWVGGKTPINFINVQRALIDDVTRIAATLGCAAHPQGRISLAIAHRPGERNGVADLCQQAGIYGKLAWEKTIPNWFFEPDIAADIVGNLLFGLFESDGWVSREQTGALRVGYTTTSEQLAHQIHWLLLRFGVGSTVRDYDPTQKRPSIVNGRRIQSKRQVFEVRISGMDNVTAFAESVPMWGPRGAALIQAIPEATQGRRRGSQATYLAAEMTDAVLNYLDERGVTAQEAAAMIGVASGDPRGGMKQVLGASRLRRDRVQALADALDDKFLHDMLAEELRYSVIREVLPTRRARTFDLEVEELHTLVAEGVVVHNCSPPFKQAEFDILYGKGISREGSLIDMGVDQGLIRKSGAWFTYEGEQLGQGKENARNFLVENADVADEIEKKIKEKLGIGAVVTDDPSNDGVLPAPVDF

[8] = target: T4, Replicative DNA helicase DnaB (Mycobacterium tuberculosis, UniProt P9WMR3); assay: DnaB intein splicing inhibitors, dose response, biochemical, cell-free fluorescence (AID 449749); assay type: functional
T4 sequence (P9WMR3 whole entry): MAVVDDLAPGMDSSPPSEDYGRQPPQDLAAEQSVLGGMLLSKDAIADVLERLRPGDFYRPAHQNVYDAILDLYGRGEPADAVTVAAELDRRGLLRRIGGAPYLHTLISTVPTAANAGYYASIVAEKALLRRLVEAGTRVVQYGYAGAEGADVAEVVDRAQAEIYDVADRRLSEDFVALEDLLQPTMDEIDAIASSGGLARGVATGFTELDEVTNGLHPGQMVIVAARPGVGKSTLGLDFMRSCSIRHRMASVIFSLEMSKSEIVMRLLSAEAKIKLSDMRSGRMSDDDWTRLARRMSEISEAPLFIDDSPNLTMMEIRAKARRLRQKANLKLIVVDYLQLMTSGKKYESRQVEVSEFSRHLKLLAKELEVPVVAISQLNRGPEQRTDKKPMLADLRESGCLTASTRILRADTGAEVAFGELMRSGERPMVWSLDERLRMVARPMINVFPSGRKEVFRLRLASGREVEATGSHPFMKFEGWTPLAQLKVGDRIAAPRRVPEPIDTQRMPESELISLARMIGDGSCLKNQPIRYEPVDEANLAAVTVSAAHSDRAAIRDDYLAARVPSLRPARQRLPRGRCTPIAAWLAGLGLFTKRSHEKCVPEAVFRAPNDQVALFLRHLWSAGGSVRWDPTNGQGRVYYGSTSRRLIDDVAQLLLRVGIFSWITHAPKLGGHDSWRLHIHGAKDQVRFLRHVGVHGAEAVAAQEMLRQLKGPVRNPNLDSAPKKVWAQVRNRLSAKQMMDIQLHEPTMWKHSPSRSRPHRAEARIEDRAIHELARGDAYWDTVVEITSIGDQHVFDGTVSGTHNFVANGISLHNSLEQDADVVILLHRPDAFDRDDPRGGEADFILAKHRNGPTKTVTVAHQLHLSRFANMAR

[9] = target: FAD-linked sulfhydryl oxidase ALR (Homo sapiens, UniProt P55789); assay: inhibitors of human ALR sulfhydryl oxidase, dose response, biochemical, H2O2 detection, luminescence, cherry-pick (AID 493248)
Chain of FAD-linked sulfhydryl oxidase ALR (P55789 whole entry, the tested form may be a part): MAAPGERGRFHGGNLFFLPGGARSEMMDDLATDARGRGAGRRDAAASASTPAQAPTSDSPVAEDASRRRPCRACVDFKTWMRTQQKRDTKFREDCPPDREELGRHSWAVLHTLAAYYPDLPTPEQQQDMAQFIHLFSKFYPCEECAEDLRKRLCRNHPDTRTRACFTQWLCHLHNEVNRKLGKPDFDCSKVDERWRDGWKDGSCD

[10] = target: T1, Fatty acid synthase; assay: FAS thioesterase domain inhibitors, dose response, biochemical, endpoint fluorescence intensity, uHTS hits (AID 624327); assay type: functional;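 note: fluorescence from hydrolysis of an O-methyl fluorescein acyl ester substrate by the enzyme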
[11] = target: T5, Corticotropin-releasing factor receptor 2/Corticotropin-releasing factor-binding protein (Homo sapiens, UniProt P24387+Q13324); assay: activators of CRF receptor 2 with binding protein – uHTS hits, confirmation (AID 602473); assay type: functional; conditions: read-out: EC50_Mean
T5 sequence (Q13324 whole entry): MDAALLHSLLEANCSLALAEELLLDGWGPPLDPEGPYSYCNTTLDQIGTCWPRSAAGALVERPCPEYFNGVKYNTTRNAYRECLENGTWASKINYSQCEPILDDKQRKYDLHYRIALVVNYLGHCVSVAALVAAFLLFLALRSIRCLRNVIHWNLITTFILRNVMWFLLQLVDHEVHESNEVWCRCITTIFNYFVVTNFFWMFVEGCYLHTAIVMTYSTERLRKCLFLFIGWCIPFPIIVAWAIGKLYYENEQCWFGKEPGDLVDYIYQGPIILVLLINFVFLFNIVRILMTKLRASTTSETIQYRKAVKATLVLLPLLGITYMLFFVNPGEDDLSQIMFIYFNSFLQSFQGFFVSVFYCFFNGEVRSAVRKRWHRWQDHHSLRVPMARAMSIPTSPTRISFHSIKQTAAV
T5 sequence (P24387 whole entry): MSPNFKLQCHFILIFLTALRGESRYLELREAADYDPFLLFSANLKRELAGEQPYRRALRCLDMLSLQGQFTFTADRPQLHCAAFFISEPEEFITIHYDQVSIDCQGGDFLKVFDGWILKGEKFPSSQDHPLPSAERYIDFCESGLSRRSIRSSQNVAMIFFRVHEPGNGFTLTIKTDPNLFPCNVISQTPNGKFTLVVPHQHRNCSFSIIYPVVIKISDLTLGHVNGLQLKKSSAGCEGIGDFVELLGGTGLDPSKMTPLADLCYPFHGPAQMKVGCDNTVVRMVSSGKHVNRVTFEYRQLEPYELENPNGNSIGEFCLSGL

Row | Structure (SMILES) | EC50 [1] | EC50 [2] | IC50 [4] | IC50 [6] | also measured
1 | CC(NC(=O)OCc1ccccc1)C(=O)Oc1cc2oc(=O)cc(-c3ccccc3)c2cc1Cl (stereo unspecified) | 1.09 µM (active) | > 150 µM (inactive) | – | – | –
2 | O=C(NCCc1ccccc1)c1c(O)c2cccc3c2n(c1=O)CC3 | > 38 µM (not active) | > 150 µM (inactive) | – | – | –
3 | O=C(c1ccc(Cl)c([N+](=O)[O-])c1)N1CCN(c2ccccc2)CC1 | – | – | – | – | IC50 [3]: 11.9 µM (active)
4 | O=C(O)CCN1C(=O)C(=C2CCCCCC2)SC1=S | – | – | > 66 µM (inactive) | > 66 µM (inactive) | AC50 [5]: 40.8 µM (active)
5 | CCc1c(O)nc(SCC(=O)N2CCc3cc(OC)c(OC)cc3[C@@H]2C)nc1O | – | – | > 66 µM (inactive) | > 66 µM (inactive) | –
6 | COc1cc(/C=C2/C(=O)N(c3ccc(C)c(C)c3)N=C2C)cc([N+](=O)[O-])c1O | – | – | – | – | EC50 [7]: 8.54 µM (active); AC50 [8]: 11.3 µM (active)
7 | C=C(C)CSc1nc(O)cc(C)c1C#N | 1.86 µM (active) | > 150 µM (inactive) | – | – | –
8 | CCOC(=O)Cc1csc(NC(=O)CSc2nc(O)c3c(C)c(C(=O)O)sc3n2)n1 | 5.45 µM (active) | 104 µM (active) | – | – | –
9 | O=C(Cn1nnc(-c2cc(C(F)(F)F)cc(C(F)(F)F)c2)n1)NN=C(S)Nc1ccc(Cl)cc1 | – | – | > 66 µM (inactive) | > 66 µM (inactive) | –
10 | CS(=O)(=O)c1ccc2nc(NC3(C(F)(F)F)N=C4SCCN4C3=O)sc2c1 (stereo unspecified) | – | – | > 66 µM (inactive) | > 66 µM (inactive) | –
11 | Cc1ccc(Sc2ncnc3onc(C)c23)cc1 | – | – | – | – | EC50 [7]: 6.8 µM (active); AC50 [9]: 9.91 µM (active); AC50 [8]: 14.9 µM (active)
12 | CN(C)S(=O)(=O)c1ccc2c(c1)C(=O)c1cc(S(=O)(=O)N(C)C)ccc1CC2 | – | – | – | – | IC50 [10]: 0.176 µM (active); IC50 [3]: 0.166 µM (active)
13 | O=C1NC[C@@H](c2ccccc2)OC(=O)[C@H](Cc2ccc(F)cc2)CC/C=C/C[C@H]1CC(=O)N(CCO)Cc1ccccc1 | – | – | – | – | EC50 [11]: > 53 µM (inactive)
